Here are results for 41 molecules from patent US5972939A, “Cyclopentene derivatives useful as antagonists of the motilin receptor” (Ortho-McNeil Pharmaceutical, Inc., priority 1998, dated 1999).

SMILES strings stand for the structures. Where two headings read alike, the source gives them in different places.

The target in test [1] is T1, motilin receptors located on the colon of mature rabbits (Oryctolagus cuniculus, UniProt G1T803).
T1 construct: The colon from mature New Zealand rabbits was removed, dissected free from the mucosa and serosa layers, and diced into small pieces; from tissue; host or cells: colon smooth muscle of mature New Zealand rabbits, crude membrane homogenate
T1 sequence (G1T803 1-400): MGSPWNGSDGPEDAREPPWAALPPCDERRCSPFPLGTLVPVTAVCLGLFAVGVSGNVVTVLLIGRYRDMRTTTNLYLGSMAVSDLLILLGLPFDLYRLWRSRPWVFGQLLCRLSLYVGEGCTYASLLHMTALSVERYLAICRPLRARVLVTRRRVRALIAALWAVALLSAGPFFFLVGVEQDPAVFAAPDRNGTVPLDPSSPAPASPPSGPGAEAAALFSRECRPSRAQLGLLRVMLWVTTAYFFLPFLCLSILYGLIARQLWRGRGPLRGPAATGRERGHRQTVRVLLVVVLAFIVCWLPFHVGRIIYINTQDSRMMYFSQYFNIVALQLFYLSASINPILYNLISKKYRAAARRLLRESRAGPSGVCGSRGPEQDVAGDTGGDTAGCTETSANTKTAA
Nature of the test: competition with radiolabeled (125I) porcine motilin for the motilin receptors of rabbit colon. In kind it is binding. Conditions: for IC50: rabbit colon, 125I motilin. As to the method: The compounds of the invention were tested for their ability to compete with radiolabeled motilin (porcine) for the motilin receptors located on the colon of mature rabbits. The colon from mature New Zealand rabbits was removed, dissected free from the mucosa and serosa layers, and diced into small pieces. […] The homogenate was centrifuged at 1000×g for 15 min. and the supernatant discarded. The pellet was washed twice before being suspended in homogenizing buffer. This crude homogenate is then passed first through a 19 gauge needle then a 23 gauge needle to further suspend the material and stored as -80° C. […] After 30 min, at 30° C., the material was cooled on ice and centrifuged at 13,000×g for 1 minute. The pellet was washed with 1 mL 0.9% saline and centrifuged at 13,000×g for 15 seconds. The pellet was washed again with cold saline and the supernatant was removed. The pellet was counted in the gamma counter to determine the percentage of […] motilin and thereby the percent inhibition of the test compound. IC50s were determined for some compounds by standard techniques.

The test system of test [2] is rabbit duodenum smooth muscle (motilin and erythromycin induced contractions). Kind of test: inhibition of motilin (porcine) induced contractions in rabbit duodenum smooth muscle. In kind it is cell-based. To be noted: for IC50: rabbit duodenum strips, porcine motilin, read-out: IC50. How it is done: Select compounds of the invention were evaluated for their ability to inhibit motilin and erythromycin induced contractions in the rabbit duodenum smooth muscle. Rabbits were fasted 24-48 h and euthanized. The venral midline incision was made approximately 7.5 cm above the umbilicus upto the xyphoid process, exposing the upper peritoneal cavity. The first 8 cm. of the duodenum starting at the pyloric valve was quickly removed and placed in Krebs solution containing NaCl, ([…]), KCl (4.7 mM), MgSO4 *7 H2 O (1.2 mM), CaCl2 *2 H2 O (2.4 mM), KH2 PO4 (1 mM), D-glucose (10 mM), and NaHCO3 (24 mM). The lumen was flushed with Krebs and excess tissue was removed. The tissue was cut lengthwise, splayed open with the longitudinal muscle layer facing up, and the longitudinal muscle layer was released away from the circular muscle and cut into 3×30 mm strips. A pre-tied 4-0 silk ligature with a loop was placed at the middle of the strip and the strip was folded over the loop so the strip was half its original length. The tissues were mounted in a 10 mL tissue bath (Radnotti Glass Technology, Inc., Monrovia, Calif.) containing Krebs solution gassed with 95% O2 5% CO2 at 37° C. […] The tissues were allowed to equilibrate for 60-90 min with 2-3 wash cycles. The tissues were equilibrated with two initial contractions induced by a concentration of acetylcholine (1×10^-4 M) that produced a maximal contraction (0.1 mM), with the highest taken as 100% maximall contraction of that tissue. Base line and response levels are expressed as grams tension developed and as a percent of the response to acetylcholine. The test compounds were dissolved in DMSO (2 mM/100% DMSO) and applied to the prepared strips 5-15 minutes prior to the addition of porcine motilin. After addition, the tension is constantly monitored over 5 min and the maximum tension is recorded. The percent contraction was measured at four ascending concentrations and where appropriate IC50s were determined.

In general, IC50 refers to the midpoint of a concentration-inhibition curve. For orientation: inhibition means how much of the control response was suppressed. A higher inhibition goes with a response far below the control. For `CCN(CC)CCN(CC1=CC(Cc2ccccc2)(NC(=O)C(Cl)(Cl)Cl)CC1)c1cccc(OCCN2CCCC2)c1` (centres unmarked) [Compound 55], the half-maximal inhibitory concentration (IC50) in test [1] (read-out: IC50 (unit inferred)) stood at 0.9 µM. Further, at 2 µM the inhibition in test [2] (Oryctolagus cuniculus, @ 2 μM (2.0 μM)) was 43%. As for `O=C(Nc1ccccc1)N(CC1=CC(Cc2ccccc2)(NC(=O)C(Cl)(Cl)Cl)CC1)c1cccc(OCCN2CCOCC2)c1` (centres unmarked) [Compound 7, 3-Benzyl-3-trichloroacetylamino-1-(N-phenylaminocarbonyl)-N-[(3-(2-morpholinoethoxy)phenyl)amino]methylcyclopentene], the IC50 in test [1] (read-out: IC50) was 0.045 µM; in test [2], 0.287 µM. Consider `O=C(Nc1ccccc1)N(CC1=CC(Cc2ccccc2)(NC(=O)C(Cl)(Cl)Cl)CC1)c1cccc(OCCN2CCOCC2)c1` (centres unmarked) [Compound 8], for which the half-maximal inhibitory concentration (IC50) in test [1] (read-out: IC50) turned out to be 0.02 µM; in test [2] it was 0.28 µM. Molecule `COc1ccc(CCN(CCN2CCOCC2)CC2=CC(Cc3ccccc3)(NC(=O)C(Cl)(Cl)Cl)CC2)cc1OC(=O)c1ccccc1` (centres unmarked) [Compound 95] came in with an inhibition at 2 µM in test [1] of 22%. In the case of `CN(C)c1ccc(C(=O)N(CCc2cccc(OCCN3CCOCC3)c2)CC2=CC(Cc3ccccc3)(NC(=O)C(Cl)(Cl)Cl)CC2)cc1` (centres unmarked) [Compound 96], 1 µM produced 62% inhibition in test [1].

As for `CN(C)CCSc1ccc(N(CC2=CC(Cc3ccccc3)(NC(=O)C(Cl)(Cl)Cl)CC2)C(=O)c2ccccc2)cc1` (centres unmarked) [Compound 86], the inhibition at 2 µM in test [1] came out at 49%. On to `N#Cc1ccc(C(=O)N(CC2=CC(Cc3ccccc3)(NC(=O)C(Cl)(Cl)Cl)CC2)c2cccc(OCCN3CCOCC3)c2)cc1` (centres unmarked) [Compound 109], for which the IC50 in test [1] (read-out: IC50) stood at 0.098 µM. The molecule `O=C(c1cccc(F)c1)N(CC1=CC(Cc2ccc(F)cc2)(NC(=O)C(Cl)(Cl)Cl)CC1)c1cccc(OCCN2CCOCC2)c1` (centres unmarked) [Compound 126] gave an inhibition at 0.04 µM in test [1] (@ 0.04 μM) of 44%. Consider `COc1ccc(N(CC2=CC(Cc3ccccc3)(NC(=O)C(Cl)(Cl)Cl)CC2)C(=O)c2ccccc2)cc1OCCN1CCOCC1` (centres unmarked) [Compound 34], for which 10 µM produced 74% inhibition in test [1]. In test [1], `O=C(NC1(Cc2ccccc2)C=C(CNc2cccc(OCCN3CCOCC3)c2)CC1)C(Cl)(Cl)Cl` (centres unmarked) [Compound 6] came in with an inhibition at 10 µM of 37%.

Consider `O=C(c1ccc(I)cc1)N(CC1=CC(Cc2ccccc2)(NC(=O)C(Cl)(Cl)Cl)CC1)c1cccc(OCCN2CCOCC2)c1` (centres unmarked) [Compound 105], for which, in test [1], at 0.1 µM the inhibition was 59%. `O=C(c1ccc2c(c1)OCO2)N(CC1=CC(Cc2ccccc2)(NC(=O)C(Cl)(Cl)Cl)CC1)c1cccc(OCCN2CCOCC2)c1` (centres unmarked) [Compound 122]: in test [1], the inhibition at 1 µM came out at 77%. Regarding `O=C(c1sccc1Br)N(CC1=CC(Cc2ccccc2)(NC(=O)C(Cl)(Cl)Cl)CC1)c1cccc(OCCN2CCOCC2)c1` (centres unmarked) [Compound 115], the inhibition at 1 µM in test [1] worked out at 65%. In turn, `O=C(c1ccc(F)c(F)c1)N(CC1=CC(Cc2ccccc2)(NC(=O)C(Cl)(Cl)Cl)CC1)c1cc(OCCN2CCOCC2)ccc1Cl` (centres unmarked) [Compound 114] returned an inhibition at 100 µM in test [1] (@ 100 μM) of 52%. In test [1], `O=C(c1ccc(F)cc1)N(CC1=CC(Cc2ccccc2)(NC(=O)C(Cl)(Cl)Cl)CC1)c1cccc(SCCN2CCOCC2)c1` (centres unmarked) [Compound 80] yielded an inhibition at 10 µM of 79%. In test [1], `CCN(CC)CCN(CC1=CC(Cc2ccccc2)(NC(=O)C(Cl)(Cl)Cl)CC1)c1ccccc1OCCN1CCOCC1` (centres unmarked) [Compound 70] displayed an inhibition at 10 µM of 80%. Still for that read-out and setting: then `COc1ccc(NCC2=CC(Cc3ccccc3)(NC(=O)C(Cl)(Cl)Cl)CC2)cc1O` (centres unmarked) [Compound 87], with 32%. For the molecule `O=C(c1ccc(F)cc1)N(CC1=CC(Cc2cccc(Cl)c2)(NC(=O)C(Cl)(Cl)Cl)CC1)c1cccc(OCCN2CCOCC2)c1` (centres unmarked) [Compound 121], the IC50 in test [1] (read-out: IC50) stood at 0.03 µM. In test [1], `COc1ccc(N(CC2=CC(Cc3ccccc3)(NC(=O)C(Cl)(Cl)Cl)CC2)Cc2ccccc2)cc1OCCN1CCOCC1` (centres unmarked) [Compound 93] came in with an inhibition at 10 µM of 62%.

In test [1], `O=C(c1ccc(F)c(F)c1)N(CC1=CC(Cc2cccc(Cl)c2)(NC(=O)C(Cl)(Cl)Cl)CC1)c1cccc(OCCN2CCOCC2)c1` (centres unmarked) [Compound 130] gave an inhibition at 0.1 µM of 78%. Take `O=C(c1ccccc1)N(CCc1cccc(OCCN2CCOCC2)c1)CC1=CC(Cc2ccccc2)(NC(=O)C(Cl)(Cl)Cl)CC1` (centres unmarked) [Compound 41]: in test [1], the inhibition at 10 µM amounted to 82%. As to `O=C(NC1(Cc2ccccc2)C=C(CN(C(=S)Nc2ccccc2)c2cccc(OCCN3CCOCC3)c2)CC1)C(Cl)(Cl)Cl` (centres unmarked) [Compound 11], the inhibition at 0.1 µM in test [1] came to 45%. `O=C(c1ccncc1)N(CC1=CC(Cc2ccccc2)(NC(=O)C(Cl)(Cl)Cl)CC1)c1cccc(OCCN2CCOCC2)c1` (centres unmarked) [Compound 111]: the inhibition at 1 µM in test [1] was determined as 51%. Consider `Nc1cccc(NCC2=CC(Cc3ccccc3)(NC(=O)C(Cl)(Cl)Cl)CC2)c1` (centres unmarked) [Compound 75], for which the inhibition at 10 µM in test [1] is 41%.

As for `O=C(Nc1cccc(Br)c1)N(CC1=CC(Cc2ccccc2)(NC(=O)C(Cl)(Cl)Cl)CC1)c1cccc(OCCN2CCOCC2)c1` (centres unmarked) [Compound 112], 1 µM produced 51% inhibition in test [1].

`O=C(c1cccc(Br)c1)N(CC1=CC(Cc2ccccc2)(NC(=O)C(Cl)(Cl)Cl)CC1)c1cccc(OCCN2CCOCC2)c1` (centres unmarked) [Compound 101] showed an inhibition at 0.1 µM in test [1] of 54%.

On to `O=C(Nc1ccccc1)N(CC1=CC(Cc2ccccc2)(NC(=O)C(Cl)(Cl)Cl)CC1)c1cccc(OCC[N+]2([O-])CCOCC2)c1` (centres unmarked) [Compound 136], for which at 1 µM the inhibition in test [1] was 57%. Regarding `COc1ccc(NC(=O)N(CC2=CC(Cc3ccccc3)(NC(=O)C(Cl)(Cl)Cl)CC2)c2cccc(OCCN3CCOCC3)c2)cc1` (centres unmarked) [Compound 89], in test [1] (@ 5.0 μM), at 5 µM the inhibition was 26%.

With `O=C(c1ccc(F)cc1)N(CC1=CC(NC(=O)C(Cl)(Cl)Cl)(c2ccccc2)CC1)c1cccc(OCCN2CCOCC2)c1` (centres unmarked) [Compound 128], in test [1], the inhibition at 0.1 µM turned out to be 43%. On to `O=C(c1c(F)c(F)c(F)c(F)c1F)N(CC1=CC(Cc2ccccc2)(NC(=O)C(Cl)(Cl)Cl)CC1)c1cccc(OCCN2CCOCC2)c1` (centres unmarked) [Compound 100], for which the half-inhibitory concentration (IC50) in test [1] (read-out: IC50) was determined as 1 µM. Take `O=C(c1cccc2ccccc12)N(CC1=CC(Cc2ccccc2)(NC(=O)C(Cl)(Cl)Cl)CC1)c1cccc(OCCN2CCOCC2)c1` (centres unmarked) [Compound 124]: at 0.1 µM the inhibition in test [1] was 40%. In turn, `COc1ccc(C(=O)N(CC2=CC(Cc3ccccc3)(NC(=O)C(Cl)(Cl)Cl)CC2)c2cccc(SCCN3CCOCC3)c2)cc1` (centres unmarked) [Compound 84] registered an inhibition at 10 µM in test [1] of 59%.

`CCN(CC)CCOc1cccc(N(CCN(CC)CC)CC2=CC(Cc3ccccc3)(NC(=O)C(Cl)(Cl)Cl)CC2)c1` (centres unmarked) [Compound 51] yielded an inhibition at 5 µM in test [2] (Oryctolagus cuniculus, @ 5 μM) of 74%. In the case of `O=C(c1cccc(F)c1)N(CC1=CC(Cc2ccccc2)(NC(=O)C(Cl)(Cl)Cl)CC1)c1cc(OCCN2CCOCC2)ccc1Cl` (centres unmarked) [Compound 113], the inhibition at 1 µM in test [1] was found to be 59%. The molecule `O=C(c1cccc(C(F)(F)F)c1)N(CC1=CC(Cc2ccccc2)(NC(=O)C(Cl)(Cl)Cl)CC1)c1cccc(OCCCN2CCOCC2)c1` (centres unmarked) [Compound 103] showed an inhibition at 0.1 µM in test [1] of 52%.

`O=C(c1ccc(-c2ccccc2)cc1)N(CC1=CC(Cc2ccccc2)(NC(=O)C(Cl)(Cl)Cl)CC1)c1cccc(OCCN2CCOCC2)c1` (centres unmarked) [Compound 1407] showed an inhibition at 1 µM in test [1] of 58%. The molecule `O=C(c1cc(F)cc(F)c1)N(CC1=CC(Cc2ccccc2)(NC(=O)C(Cl)(Cl)Cl)CC1)c1cccc(OCCN2CCOCC2)c1` (centres unmarked) [Compound 106] showed an inhibition at 0.1 µM in test [1] of 78%.

Molecule `CCN(CC)CCN(CC1=CC(Cc2ccccc2)(NC(=O)C(Cl)(Cl)Cl)CC1)c1ccc(OCCN(C)C)cc1` (centres unmarked) [Compound 71] gave an inhibition at 10 µM in test [1] of 85%. With `CC(C)(C)c1ccc(C(=O)N(CC2=CC(Cc3ccccc3)(NC(=O)C(Cl)(Cl)Cl)CC2)c2cccc(OCCN3CCOCC3)c2)cc1` (centres unmarked) [Compound 110], at 1 µM the inhibition in test [1] was 19%. `O=C(Nc1ccccc1)N(CC1=CC(Cc2ccccc2)(NC(=O)C(Cl)(Cl)Cl)CC1)c1cccc(CCCN2CCOCC2)c1` (centres unmarked) [Compound 19] came in with an inhibition at 1 µM in test [1] of 59%. In test [1], `CC(=O)NC1(Cc2ccccc2)C=C(CN(C(=O)Nc2ccccc2)c2cccc(OCCN3CCOCC3)c2)CC1` (centres unmarked) [Compound 15, 3-Benzyl-3-acetylamino-1-(N-phenylaminocarbonyl)-N-[(3-(2-morpholinoethoxy)phenyl)amino]methylcyclopentene] gave an inhibition at 1 µM of 40%.
